Measured values: BindingDB's records for doi:10.1016/j.bmcl.2008.01.016 (Merck Research Laboratories, 2008)

Assay: Antagonist activity at human CCR2 assessed as inhibition of MCP1-induced monocyte chemotaxis

C[C@H]1CN([C@@H]2CC[C@@]3(CCO[C@H]3OCc3cc(F)cc(C(F)(F)F)c3)C2)CC[C@@]12C=Cc1ccccc12
IC50: 2.5 nM
